According to patent US20100120730A1, “6-BENZYL-2,3,4,7-TETRAHYDRO-INDOLO [2,3-C] QUINOLINE COMPOUNDS USEFUL AS PDE5 INHIBITORS” (NYCOMED GmbH, priority 2007, published 2010):

Columns and labels:
human PDE5 = molecular target: T1, human PDE5 (Homo sapiens, UniProt O76074); assay: Inhibition of PDE5 activity (modified SPA test, human platelet lysate); format: biochemical; conditions: PDE5-containing human platelet lysate, 0.5 μM cGMP substrate, 37° C.
T1 construct: from tissue; host or cells: human platelets from fresh donor blood (10,000 g supernatant of sonified platelets)
Procedure: As a source for human PDE5, platelets were used. For that purpose, 150 ml fresh blood from human donors anticoagulated with citrate [final concentration 0.3% (w/v)] was centrifuged at 200 g for 10 min to obtain the so-called platelet-rich-plasma (PRP) as a supernatant. 1/10 volume of ACD solution (85 mM Na3-citrate, 111 mM D-glucose, 71 mM citric acid, pH 4.4) was added to 9/10 volume of PRP. After centrifugation (1,400 g, 10 min) the cell pellet was resuspended in 3 ml homogenization buffer (NaCl 140 mM, KCl 3.8 mM, EGTA 1 mM, MgCl2 1 mM, Tris-HCl 20 mM, beta-mercaptoethanol 1 mM, pH 8.2) plus protease-inhibitor mix giving rise to the final concentrations of 0.5 mM Pefablock (Roche), 10 μM Leupeptin, 5 μM Trypsininhibitor, 2 mM Benzamidin and 10 μM Pepstatin A. The suspension was sonified and thereafter centrifuged for 15 min at 10,000 g. The resulting supernatant (platelet lysate) was used for enzymatic testings.
PDE5A1 activity is inhibited by the compounds of the invention in a modified SPA (scintillation proximity assay) test, supplied by Amersham Biosciences (see procedural instructions “phosphodiesterase [3H]cAMP SPA enzyme assay, code TRKQ 7090”), carried out in 96-well microtitre plates (MTP's). The test volume is 100 μl and contains 20 mM Tris buffer (pH 7.4), 0.1 mg of BSA (bovine serum albumin)/ml, 5 mM Mg^2+, 1 μM motapizone, 10 nM PDE2 inhibitor BAY-60-7550, 0.5 μM cGMP (including about 50,000 cpm of [3H]cGMP as a tracer), 1 μl of the respective compound dilution in dimethylsulfoxide (DMSO) and sufficient PDE5-containing platelet lysat (10,000×g supernatant, see above) to ensure that 10-20 wt % of the cGMP is converted under the said experimental conditions. […] After a preincubation of 5 min at 37° C., the reaction was started by adding the substrate (cGMP) and the assay was incubated for a further 15 min; after that, it was stopped by adding SPA beads (50 μl). In accordance with the manufacturer's instructions, the SPA beads had previously been resuspended in water, but were then diluted 1:3 (v/v) in water; the diluted solution also contains 3 mM 8-methoxymethyl-3-isobutyl-1-methylxanthine (IBMX) to ensure a complete PDE activity stop. After the beads have been sedimented (>30 min), the MTP's are analyzed in commercially available luminescence detection devices. The corresponding IC50 values of the compounds for the inhibition of PDE activity are determined from the concentration-effect curves by means of non-linear regression.

SMILES	IC50 (human PDE5) [nM]	melting point
CCC(=O)Nc1ccc(Cc2nc3c(c4c2[nH]c2ccccc24)C(O)CC(C)(C)C3)cc1 (centres unmarked) [Example 60, N-[4-(1-Hydroxy-3,3-dimethyl-2,3,4,7-tetrahydro-1H-indolo[2,3-c]quinolin-6-ylmethyl)-phenyl]-propionamide]	70.8	165 to 168 °C
CC1(C)CC(=O)c2c(nc(Cc3ccc(OC(F)(F)F)cc3)c3[nH]c4ccccc4c23)C1 [Example 11, 3,3-Dimethyl-6-(4-trifluoromethoxy-benzyl)-2,3,4,7-tetrahydro-indolo[2,3-c]quinolin-1-one]	135	141 to 143 °C
CC1(C)CC(=O)c2c(nc(Cc3ccc4c(c3)OCO4)c3[nH]c4ccccc4c23)C1 [Example 37, 6-Benzo[1,3]dioxol-5-ylmethyl-3,3-dimethyl-2,3,4,7-tetrahydro-indolo[2,3-c]quinolin-1-one]	4.9	193 to 196 °C (dec.)
CC1(C)CC(=O)c2c(nc(Cc3cc(F)cc(F)c3)c3[nH]c4ccccc4c23)C1 [Example 22, 6-(3,5-Difluoro-benzyl)-3,3-dimethyl-2,3,4,7-tetrahydro-indolo[2,3-c]quinolin-1-one]	15.5	204 to 208 °C
CC1(C)CC(=O)c2c(nc(Cc3ccc(F)c(F)c3)c3[nH]c4ccccc4c23)C1 [Example 24, 6-(3,4-Difluoro-benzyl)-3,3-dimethyl-2,3,4,7-tetrahydro-indolo[2,3-c]quinolin-1-one]	14.1	204 to 207 °C
CC1(C)CC(=O)c2c(nc(Cc3ccc(Cl)cc3)c3[nH]c4ccccc4c23)C1 [Example 20, 6-(4-Chloro-benzyl)-3,3-dimethyl-2,3,4,7-tetrahydro-indolo[2,3-c]quinolin-1-one]	10.2	205 to 207 °C
COc1c(F)cc(Cc2nc3c(c4c2[nH]c2ccccc24)C(=O)CC(C)(C)C3)cc1F [Example 32, 6-(3,5-Difluoro-4-methoxy-benzyl)-3,3-dimethyl-2,3,4,7-tetrahydro-indolo[2,3-c]quinolin-1-one]	0.191	195 to 196 °C
COc1ccc(Cc2nc3c(c4c2[nH]c2ccccc24)C(=O)CC(C)(C)C3)cc1Cl [Example 15, 6-(3-Chloro-4-methoxy-benzyl)-3,3-dimethyl-2,3,4,7-tetrahydro-indolo[2,3-c]quinolin-1-one]	6.31	209 to 211 °C
CC1(C)CC(=O)c2c(nc(Cc3cc(F)cc(Cl)c3)c3[nH]c4ccccc4c23)C1 [Example 36, 6-(3-Chloro-5-fluoro-benzyl)-3,3-dimethyl-2,3,4,7-tetrahydro-indolo[2,3-c]quinolin-1-one]	234	219 to 221 °C
CC1(C)Cc2nc(Cc3cc(F)cc(F)c3)c3[nH]c4ccccc4c3c2C(O)C1 (centres unmarked) [Example 67, 6-(3,5-Difluoro-benzyl)-3,3-dimethyl-2,3,4,7-tetrahydro-1H-indolo[2,3-c]quinolin-1-ol]	7.94	117 to 123 °C
CCOc1ccc(Cc2nc3c(c4c2[nH]c2ccccc24)C(O)CC(C)(C)C3)cc1 (centres unmarked) [Example 55, 6-(4-Ethoxy-benzyl)-3,3-dimethyl-2,3,4,7-tetrahydro-1H-indolo[2,3-c]quinolin-1-ol]	25.1	182 to 184 °C
CC(C)c1ccc(Cc2nc3c(c4c2[nH]c2ccccc24)C(=O)CC(C)(C)C3)cc1 [Example 14, 6-(4-Isopropyl-benzyl)-3,3-dimethyl-2,3,4,7-tetrahydro-indolo[2,3-c]quinolin-1-one]	347	153 to 155 °C
CC1(C)CC(=O)c2c(nc(Cc3cccc(Cl)c3)c3[nH]c4ccccc4c23)C1 [Example 35, 6-(3-Chloro-benzyl)-3,3-dimethyl-2,3,4,7-tetrahydro-indolo[2,3-c]quinolin-1-one]	37.2	206 to 209 °C
CC1(C)Cc2nc(Cc3cc(F)cc(F)c3)c3[nH]c4ccccc4c3c2[C@@H](O)C1 [Example 86, (S)-6-(3,5-Difluoro-benzyl)-3,3-dimethyl-2,3,4,7-tetrahydro-1H-indolo[2,3-c]quinolin-1-ol]	3.16	130 to 131 °C
COc1ccc(Cc2nc3c(c4c2[nH]c2ccccc24)CCC(C)(C)C3)cc1 [Example 77, 6-(4-Methoxy-benzyl)-3,3-dimethyl-2,3,4,7-tetrahydro-1H-indolo[2,3-c]quinoline]	6.31	158 °C
NC(=O)Nc1ccc(Cc2nc3c(c4c2[nH]c2ccccc24)C(=O)CCC3)cc1 [Example 76, [4-(1-Oxo-2,3,4,7-tetrahydro-1H-indolo[2,3-c]quinolin-6-ylmethyl)-phenyl]-urea]	41.7	232 to 234 °C
CC(=O)Nc1ccc(Cc2nc3c(c4c2[nH]c2ccccc24)C(=O)CC(C)(C)C3)cc1 [Example 44, N-[4-(3,3-Dimethyl-1-oxo-2,3,4,7-tetrahydro-1H-indolo[2,3-c]quinolin-6-ylmethyl)-phenyl]-acetamide]	16.6	153 to 154 °C

The next lines start with the values.

IC50 (human PDE5) [nM]	melting point	SMILES
0.2	131 to 133 °C	COc1c(F)cc(Cc2nc3c(c4c2[nH]c2ccccc24)C(O)CC(C)(C)C3)cc1F (centres unmarked) [Example 73, 6-(3,5-Difluoro-4-methoxy-benzyl)-3,3-dimethyl-2,3,4,7-tetrahydro-1H-indolo[2,3-c]quinolin-1-ol]
1.26	228 to 230 °C	COc1ccc(Cc2nc3c(c4c2[nH]c2ccccc24)C(=O)CCC3)cc1F [Example 29, 6-(3-Fluoro-4-methoxy-benzyl)-2,3,4,7-tetrahydro-indolo[2,3-c]quinolin-1-one]
2.51	118 to 120 °C	COc1ccc(Cc2nc3c(c4c2[nH]c2ccccc24)C(O)CCC3)cc1F (centres unmarked) [Example 71, 6-(3-Fluoro-4-methoxy-benzyl)-2,3,4,7-tetrahydro-1H-indolo[2,3-c]quinolin-1-ol]
50.1	118 to 125 °C	CC1(C)Cc2nc(Cc3cccc(Br)c3)c3[nH]c4ccccc4c3c2C(O)C1 (centres unmarked) [Example 62, 6-(3-Bromo-benzyl)-3,3-dimethyl-2,3,4,7-tetrahydro-1H-indolo[2,3-c]quinolin-1-ol]
0.324	197 to 198 °C	COc1ccc(Cc2nc3c(c4c2[nH]c2ccccc24)C(O)CC(C)(C)C3)c(F)c1F (centres unmarked) [Example 74, 6-(2,3-Difluoro-4-methoxy-benzyl)-3,3-dimethyl-2,3,4,7-tetrahydro-1H-indolo[2,3-c]quinolin-1-ol]
0.794	164 to 166 °C	COc1ccc(Cc2nc3c(c4c2[nH]c2ccccc24)[C@@H](O)CC(C)(C)C3)cc1F [Example 79, (S)-6-(3-Fluoro-4-methoxy-benzyl)-3,3-dimethyl-2,3,4,7-tetrahydro-1H-indolo[2,3-c]quinolin-1-ol]
1	118 to 120 °C	COc1ccc(Cc2nc3c(c4c2[nH]c2ccccc24)[C@@H](O)CC(C)(C)C3)cc1 [Example 81, (S)-6-(4-Methoxy-benzyl)-3,3-dimethyl-2,3,4,7-tetrahydro-1H-indolo[2,3-c]quinolin-1-ol]
3.89	123 to 126 °C	CC1(C)Cc2nc(Cc3cccc(F)c3)c3[nH]c4ccccc4c3c2[C@@H](O)C1 [Example 93, (S)-6-(3-Fluoro-benzyl)-3,3-dimethyl-2,3,4,7-tetrahydro-1H-indolo[2,3-c]quinolin-1-ol]
7.24	120 to 123 °C	OC1CCCc2nc(Cc3ccc4c(c3)OCO4)c3[nH]c4ccccc4c3c21 (centres unmarked) [Example 61, 6-Benzo[1,3]dioxol-5-ylmethyl-2,3,4,7-tetrahydro-1H-indolo[2,3-c]quinolin-1-ol]
25.1	124 to 127 °C	COc1ccc(Cc2nc3c(c4c2[nH]c2ccccc24)[C@H](O)CCC3)cc1F [Example 83, (R)-6-(3-Fluoro-4-methoxy-benzyl)-2,3,4,7-tetrahydro-1H-indolo[2,3-c]quinolin-1-ol]
66.1	211 °C	OC1CCCc2nc(Cc3ccccc3)c3[nH]c4ccccc4c3c21 (centres unmarked) [Example 49, 6-Benzyl-2,3,4,7-tetrahydro-1H-indolo[2,3-c]quinolin-1-ol]
